target: T1, Nuclear factor erythroid 2-related factor 2 (Homo sapiens) (UniProt Q16236); assay: Activation of Nrf2 (unknown origin) expressed in human HepG2 cells at 15 uM after 5 hrs by ARE-driven luciferase reporter gene assay relative to control; format: cell-based
T1 sequence (whole entry): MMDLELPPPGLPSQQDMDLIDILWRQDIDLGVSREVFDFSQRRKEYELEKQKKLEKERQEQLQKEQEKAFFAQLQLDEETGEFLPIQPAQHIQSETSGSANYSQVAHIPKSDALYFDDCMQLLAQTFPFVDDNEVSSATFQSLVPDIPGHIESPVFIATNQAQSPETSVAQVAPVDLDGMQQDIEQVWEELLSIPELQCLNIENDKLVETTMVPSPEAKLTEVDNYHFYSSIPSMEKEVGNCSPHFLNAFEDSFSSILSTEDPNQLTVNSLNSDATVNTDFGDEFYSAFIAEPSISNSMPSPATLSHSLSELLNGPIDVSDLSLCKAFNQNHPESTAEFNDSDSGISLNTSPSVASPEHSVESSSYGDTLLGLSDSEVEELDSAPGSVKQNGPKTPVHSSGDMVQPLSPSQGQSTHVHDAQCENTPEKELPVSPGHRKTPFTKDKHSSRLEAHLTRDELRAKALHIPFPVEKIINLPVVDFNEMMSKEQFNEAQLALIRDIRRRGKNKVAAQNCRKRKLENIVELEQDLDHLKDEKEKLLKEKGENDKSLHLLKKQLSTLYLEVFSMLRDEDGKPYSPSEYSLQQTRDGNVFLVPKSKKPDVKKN

Compound | fold change (FC)
COc1ccc(/C=C/c2cccc(O)c2)cc1 | 28.1
Fc1ccc(/C=C/c2ccc(F)c(F)c2)cc1 | 7
Fc1ccc(/C=C/c2ccccc2F)cc1F | 11.5
Fc1cccc(/C=C/c2ccccc2F)c1 | 8.5
COc1cccc(/C=C/c2cc(OC)ccc2OC)c1 | 15.7
COc1ccc(/C=C/c2ccc(F)c(F)c2)cc1 | 4.6

target: T1, Nuclear factor erythroid 2-related factor 2 (Homo sapiens); assay: Activation of Nrf2 (unknown origin) expressed in human HepG2 cells after 5 hrs by ARE-driven luciferase reporter gene assay relative to control; format: cell-based

Compound | fold change (FC)
Fc1cccc(F)c1/C=C/c1ccccc1 | 11.4
Fc1ccc(/C=C/c2cc(F)ccc2F)cc1 | 11.2
Fc1ccccc1/C=C/c1ccccc1F | 13.9
Fc1cccc(/C=C/c2ccccc2)c1 | 4.9
COc1cccc(/C=C/c2ccc(C)cc2)c1OC | 16.1
Cc1ccc(/C=C/c2ccc(F)cc2)cc1 | 1.1
COc1ccc(/C=C/c2ccc(F)cc2)cc1OC | 1.6
COc1ccc(/C=C/c2ccccc2Cl)cc1 | 17.8
Fc1ccc(/C=C/c2ccccc2F)cc1 | 12.7
Cc1ccc(/C=C/c2cccc(C(F)(F)F)c2)cc1 | 19.2
Cc1ccc(/C=C/c2ccc(F)cc2F)cc1 | 13.5
Fc1ccccc1/C=C/c1ccc(Cl)cc1 | 5.3
COc1cccc(/C=C/c2ccc(F)cc2)c1OC | 16.9
COc1ccccc1/C=C/c1ccccc1 | 23.1
Cc1ccc(/C=C/c2ccccc2F)cc1 | 10.1
COc1cccc(/C=C/c2ccccc2F)c1 | 14.4
COc1ccc(OC)c(/C=C/c2ccc(OC)cc2OC)c1 | 12.9
COc1ccc(/C=C/c2ccc(OC)cc2OC)cc1 | 15.6
Cc1ccc(/C=C/c2ccc(F)c(F)c2)cc1 | 10.2
Fc1ccc(/C=C/c2ccc(F)cc2F)cc1 | 16.8
Fc1cccc(/C=C/c2ccc(F)c(F)c2)c1 | 12.2
COc1ccc(/C=C/c2cccc([N+](=O)[O-])c2)cc1 | 69
Cc1ccc(/C=C/c2cccc([N+](=O)[O-])c2)cc1 | 11.9
Fc1cccc(/C=C/c2cccc(F)c2)c1 | 7
COc1cccc(/C=C/c2ccccc2)c1OC | 25.4
Oc1ccc(/C=C/c2ccccc2F)cc1 | 13.4

Compound | fold change (FC)
Oc1ccc(/C=C/c2cc(O)cc(O)c2)cc1 | 3.2
Fc1cccc(/C=C/c2ccc(F)cc2F)c1 | 8.2
COc1cccc(/C=C/c2cccc(F)c2)c1OC | 19.4
COc1ccc(/C=C/c2cc(F)ccc2F)cc1 | 17
COc1ccc(/C=C/c2ccc(O)c(OC)c2)cc1 | 27.7
Fc1ccc(/C=C/c2cccc(F)c2)cc1 | 4.5
Fc1cccc(/C=C/c2cc(F)ccc2F)c1 | 10.7
COc1cccc(/C=C/c2ccc(C(F)(F)F)cc2)c1OC | 65.5
Fc1ccc(/C=C/c2ccccc2)cc1 | 4.8
COc1ccccc1/C=C/c1ccccc1F | 18.4
Fc1ccccc1/C=C/c1c(F)cccc1F | 21.2
Fc1ccccc1/C=C/c1ccccc1 | 10.7
COc1ccc(/C=C/c2ccccc2F)cc1 | 14.9
Cc1ccc(/C=C/c2cccc(F)c2)cc1 | 4.7
Fc1ccc(/C=C/c2ccccc2F)c(F)c1 | 5
C[S+]([O-])CCCCN=C=S (stereo not drawn) | 12.4
COc1ccc(OC)c(/C=C/c2ccc(F)cc2)c1 | 10.7
COc1ccc(/C=C/c2cccc(F)c2)cc1OC | 5.9
COc1cccc(/C=C/c2ccccc2OC)c1 | 29.2
Fc1ccc(F)c(/C=C/c2ccccc2F)c1 | 22.3
COc1ccc(/C=C/c2cccc(F)c2)cc1 | 3.6
COc1ccc(/C=C/c2ccc(F)cc2)cc1 | 1.7
COc1cccc(/C=C/c2ccc(F)cc2)c1 | 4.4
O=[N+]([O-])c1cccc(/C=C/c2ccccc2)c1 | 18.6
COc1cccc(/C=C/c2ccc(C(C)C)cc2)c1OC | 33.9
COc1cccc(/C=C/c2cccc(F)c2)c1 | 15.1

Reference: ChEMBL document CHEMBL3877327, “Activation of anti-oxidant Nrf2 signaling by substituted trans stilbenes” (Bioorg Med Chem, 2017)
